# Source: patent US20080292673A1, “Bioactive agrichemical compositions and use therreof” (priority 2007, published 2008)
# Where two headings read alike, the source gives them in different places.
# Assays:
# [1] = test system: Saccharomycetes Cerevisiae (Fleishmann's Bakers yeast); assay: Saccharomycetes Cerevisiae yeast growth suppression, turbidity of broth suspension; format: cell-based; settings: for T18 − T0 (change in turbidity) / T48 − T0 (change in turbidity) / T72 − T0 (change in turbidity) / T96 − T0 (change in turbidity) / T18 (turbidity of yeast suspension) / T48 (turbidity of yeast suspension) / T72 (turbidity of yeast suspension) / T96 (turbidity of yeast suspension) / T0 (turbidity of yeast suspension): surfactant ~0.05 wt %; for T0 (turbidity of yeast suspension): time 0; for Turbidity (NTU) OD (To) / Turbidity (NTU) OD (T1 hr) / Turbidity (NTU) OD (T18) / Turbidity (NTU) OD (T24) / Turbidity (NTU) OD (T48): Table 3; for Turbidity (NTU) OD (To): 1 ml solutions added; for Turbidity (NTU) OD (T1 hr): 1 hour; for Turbidity (NTU) OD (T48): 48 hours; for Change in Turbidity from T0 (delta NTU) OD (T1 hr) / Change in Turbidity from T0 (delta NTU) OD (T18) / Change in Turbidity from T0 (delta NTU) OD (T24) / Change in Turbidity from T0 (delta NTU) OD (T48): Table 3A; for Change in Turbidity from T0 (delta NTU) OD (T48): 48 hours minus time zero
# Description: Saccharomycetes Cerevisiae was selected as a test organism as it is generally accepted in the industry as an indicator or surrogate organism for a wide variety of fungi. In each of these experiments, the same general procedure was followed unless otherwise indicated.
# Experimental Detail: A growth medium was prepared by adding 10 grams of nutrient medium (Difco Sabouraud dextrose broth from BD of Franklin Lakes, N.J., USA) to 300 ml of distilled water. Fleishmann's Bakers yeast was then added to the growth medium while mixing using a magnetic stirrer until a uniform dispersion was obtained having an initial turbidity of between about 50 and 100 NTU as measured using a HF Instruments DRT 100B Turbidity Meter. Once the appropriate dispersion was obtained, 20 ml aliquots were then dispensed, with continued mixing, into 40 ml borosilicate glass vials with Teflon lined caps (VWR International Cat. No. 15900-004). The system/component to be evaluated was then added to the vial and intimately shaken to ensure a good, substantially homogeneous mixture. The turbidity of each mixture was then determined and the vial transferred to an incubator at 30° C. Each vial was periodically removed from the incubator and the mixture in the vials assessed for turbidity: the specific timing for such evaluation was as set forth in the discussion of the experiments and the accompanying tables.
# In each experiment, unless otherwise specified, a 2 ml aqueous solution containing the specified bioactive system or component thereof was added to the 20 ml yeast suspension and mixed thoroughly. Typically the surfactants were added separately in a concentrated solution in water; however, the volume added was negligible: a fraction of an ml. For convenience in understanding efficacy levels, the amounts or concentrations of the various components presented in each of the following tables and experiments are of the diluted material in the test vial: not of the concentrate added to the test vial. Furthermore, the concentrations presented are on the basis of a 20 ml total volume, not the actual 22+ ml volume. Multiplying each of the listed concentrations by 0.9 (or 0.95 with those compositions using 1 ml aqueous solutions) will provide a more accurate assessment of the concentrations of the various components evaluated, i.e., a 5 ppm silver concentration is actually closer to 4.5 ppm. Finally, for those vials to which no bioactive system or component thereof was added (the controls) or which only contained the surfactants, 2 ml of additional growth medium was added to ensure relative equivalent dilutions of the yeast.
# In the tables below, the results are presented as the actual turbidity readings (NTU) with a sub-table presenting the change or delta in NTU values. Given the nature of the system, changes in turbidity are reflective of the relative performance/bioefficacy of the bioactive systems and their components.
# E. amylovora 153N = assay: Fire blight on crabapples (Example 287); format: in vivo, Snow Drift crabapple trees; settings: for shoot blight incidence, in words: evaluated on day 63; for canker, in words: length of cankers evaluated on day 63
# Description: A study of the bioefficacy of the various agrichemical compositions, including bioactive acid solutions and blends thereof with an antibiotic agrichemical, were evaluated to assess their bioefficacy against fire blight on crabapples. The study was conducted on 5 year old Snow Drift crabapple trees, with each of the compositions being applied to ten trees in two-subplots of five trees, four different times: at 100% bloom-day 1, a second application was made on day 4, a third on day 11 and a final treatment on day 19. The trees were inoculated with E. amylovora […] at a concentration of 4×10^6 cells per milliliter on day 1, following drying of the treatment, with the inoculation being repeated on day 13. Evaluation for fire blight was completed on 100 blossoms for each of the subplots on day 12, day 19 and day 27. Additionally, the incidence of shoot infection and the length of […] evaluated on day 63. The test compositions were prepared by forming solutions of the bioactive agents. Two different dilutions of the MI2 bioactive were evaluated; the first employing 94.46 ml/gallon (25 ml/l) of water (5 ppm of each metal) and the second 188.9 ml/gallon (50 ml/l) of water (10 ppm of each metal). […] Finally, copper hydroxide was diluted at a rate of 1 lb/gallon (119.8 g/l). Each of the compositions and blends were spray applied at a rate of 50 gallons (189.3 l) pre acre. The results are presented as the mean of the counts.
# [2] = Metal ppm 2.5, about 0.2% citric acid
# [3] = Metal ppm 2.5 each of copper, silver, zinc, about 0.2% citric acid
# [4] = Metal ppm 5, approximately 0.4% citric acid
# [5] = Metal ppm 5 each of copper, silver, zinc, approximately 0.4% citric acid
# [6] = 1 hour minus time zero, sulfate
# [7] = 18 hours minus time zero, sulfate
# [8] = 24 hours minus time zero, sulfate
compound,measurement,setting,value
CCCCCCCCCCCCOS(=O)(=O)[O-].[Na+],T18 − T0 (change in turbidity),"[1]; neat, Metal ppm 0",447
same,T48 − T0 (change in turbidity),"[1]; neat, Metal ppm 0",610
same,T72 − T0 (change in turbidity),"[1]; neat, Metal ppm 0",594
same,T96 − T0 (change in turbidity),"[1]; neat, Metal ppm 0",591
same,T18 (turbidity of yeast suspension),"[1]; neat, Metal ppm 0",495
same,T48 (turbidity of yeast suspension),"[1]; neat, Metal ppm 0",658
same,T72 (turbidity of yeast suspension),"[1]; neat, Metal ppm 0",642
same,T96 (turbidity of yeast suspension),"[1]; neat, Metal ppm 0",639
same,T0 (turbidity of yeast suspension),"[1]; neat, Metal ppm 0",48
same,T18 − T0 (change in turbidity),[1]; [2],2
same,T48 − T0 (change in turbidity),[1]; [2],0
same,T72 − T0 (change in turbidity),[1]; [2],0
same,T96 − T0 (change in turbidity),[1]; [2],−1
same,T18 (turbidity of yeast suspension),[1]; [3],90
same,T48 (turbidity of yeast suspension),[1]; [3],88
same,T72 (turbidity of yeast suspension),[1]; [3],88
same,T96 (turbidity of yeast suspension),[1]; [3],87
same,T0 (turbidity of yeast suspension),[1]; [3],88
same,T18 − T0 (change in turbidity),[1]; [4],13
same,T48 − T0 (change in turbidity),[1]; [4],2
same,T72 − T0 (change in turbidity),[1]; [4],7
same,T96 − T0 (change in turbidity),[1]; [4],1
same,T18 (turbidity of yeast suspension),[1]; [5],244
same,T48 (turbidity of yeast suspension),[1]; [5],233
same,T72 (turbidity of yeast suspension),[1]; [5],238
same,T96 (turbidity of yeast suspension),[1]; [5],232
same,T0 (turbidity of yeast suspension),[1]; [5],231
"O=C([O-])CC(O)(CC(=O)[O-])C(=O)[O-].[Ag+].[Ag+].[Ag+] [Example 1, silver citrate]",Turbidity (NTU) Time 1 Hr,"[1]; Table 1, 1 hour at 30° C.",59.6 NTU
same,Turbidity (NTU) T 18 hours,"[1]; Table 1, 18 hours",890 NTU
same,Turbidity (NTU) T 24 hours,"[1]; Table 1, 24 hours",932 NTU
same,Turbidity (NTU) T 96 Hours,"[1]; Table 1, 96 hours",995 NTU
same,Turbidity (NTU) Time zero,"[1]; Table 1, time zero",44.5 NTU
same,Change in Turbidity from T0 (delta NTU) Time 1 Hr,"[1]; Table 1A, 1 hour minus time zero",15.1 delta NTU
same,Change in Turbidity from T0 (delta NTU) T 18 hours,"[1]; Table 1A, 18 hours minus time zero",845.5 delta NTU
same,Change in Turbidity from T0 (delta NTU) T 24 hours,"[1]; Table 1A, 24 hours minus time zero",887.5 delta NTU
same,Change in Turbidity from T0 (delta NTU) T 96 Hours,"[1]; Table 1A, 96 hours minus time zero",950.5 delta NTU
"O=C([O-])CC(O)(CC(=O)[O-])C(=O)[O-].O=C([O-])CC(O)(CC(=O)[O-])C(=O)[O-].[Zn+2].[Zn+2].[Zn+2] [Example 7, zinc citrate]",Change in Turbidity from T0 (delta NTU) T 96 Hours,[1],1007.2 delta NTU
same,Change in Turbidity from T0 (delta NTU) T 18 hours,[1],948.2 delta NTU
same,Change in Turbidity from T0 (delta NTU) T 24 hours,[1],949.2 delta NTU
same,Change in Turbidity from T0 (delta NTU) Time 1 Hr,[1],20.7 delta NTU
same,Turbidity (NTU) T 96 Hours,[1],1051 NTU
same,Turbidity (NTU) T 18 hours,[1],992 NTU
same,Turbidity (NTU) T 24 hours,[1],993 NTU
same,Turbidity (NTU) Time 1 Hr,[1],64.5 NTU
same,Turbidity (NTU) Time zero,[1],43.8 NTU
CCCCCCCCCCCCOS(=O)(=O)[O-].[Na+] [Example 45],Turbidity (NTU) OD (To),"[1]; time zero, sulfate",43 NTU
same,Turbidity (NTU) OD (T1 hr),[1]; sulfate,47 NTU
same,Turbidity (NTU) OD (T18),"[1]; 18 hours, sulfate",675 NTU
same,Turbidity (NTU) OD (T24),"[1]; 24 hours, sulfate",728 NTU
same,Turbidity (NTU) OD (T48),[1]; sulfate,758 NTU
same,Change in Turbidity from T0 (delta NTU) OD (T1 hr),[1]; [6],4 delta NTU
same,Change in Turbidity from T0 (delta NTU) OD (T18),[1]; [7],632 delta NTU
same,Change in Turbidity from T0 (delta NTU) OD (T24),[1]; [8],685 delta NTU
same,Change in Turbidity from T0 (delta NTU) OD (T48),[1]; sulfate,715 delta NTU
CCCCCCCCCCCCOS(=O)(=O)[O-].[Na+] [Example 46],Turbidity (NTU) OD (To),"[1]; time zero, sulfate",37 NTU
same,Turbidity (NTU) OD (T1 hr),[1]; sulfate,42 NTU
same,Turbidity (NTU) OD (T18),"[1]; 18 hours, sulfate",495 NTU
same,Turbidity (NTU) OD (T24),"[1]; 24 hours, sulfate",610 NTU
same,Turbidity (NTU) OD (T48),[1]; sulfate,605 NTU
same,Change in Turbidity from T0 (delta NTU) OD (T1 hr),[1]; [6],5 delta NTU
same,Change in Turbidity from T0 (delta NTU) OD (T18),[1]; [7],458 delta NTU
same,Change in Turbidity from T0 (delta NTU) OD (T24),[1]; [8],573 delta NTU
same,Change in Turbidity from T0 (delta NTU) OD (T48),[1]; sulfate,568 delta NTU
"O=C(O)CC(O)(CC(=O)O)C(=O)O [Example 49, citric acid]",Turbidity (NTU) OD (To),[1]; time zero,42 NTU
same,Turbidity (NTU) OD (T1 hr),[1],46 NTU
same,Turbidity (NTU) OD (T18),[1]; 18 hours,835 NTU
same,Turbidity (NTU) OD (T24),[1]; 24 hours,920 NTU
same,Turbidity (NTU) OD (T48),[1],878 NTU
same,Change in Turbidity from T0 (delta NTU) OD (T1 hr),[1]; 1 hour minus time zero,4 delta NTU
same,Change in Turbidity from T0 (delta NTU) OD (T18),[1]; 18 hours minus time zero,793 delta NTU
same,Change in Turbidity from T0 (delta NTU) OD (T24),[1]; 24 hours minus time zero,878 delta NTU
same,Change in Turbidity from T0 (delta NTU) OD (T48),[1],836 delta NTU
"O=C(O)CC(O)(CC(=O)O)C(=O)O [Example 50, citric acid]",Turbidity (NTU) OD (To),[1]; time zero,38 NTU
same,Turbidity (NTU) OD (T1 hr),[1],44 NTU
same,Turbidity (NTU) OD (T18),[1]; 18 hours,780 NTU
same,Turbidity (NTU) OD (T24),[1]; 24 hours,864 NTU
same,Turbidity (NTU) OD (T48),[1],852 NTU
same,Change in Turbidity from T0 (delta NTU) OD (T1 hr),[1]; 1 hour minus time zero,6 delta NTU
same,Change in Turbidity from T0 (delta NTU) OD (T18),[1]; 18 hours minus time zero,742 delta NTU
same,Change in Turbidity from T0 (delta NTU) OD (T24),[1]; 24 hours minus time zero,826 delta NTU
same,Change in Turbidity from T0 (delta NTU) OD (T48),[1],814 delta NTU
[Cu+2].[OH-].[OH-] [copper hydroxide],"shoot blight incidence, in words",E. amylovora 153N,greatly reduced
same,"canker, in words",E. amylovora 153N,appeared to prevent canker
[H]/N=C(/N)N[C@H]1[C@H](O)[C@@H](O)[C@H](O[C@@H]2O[C@@H](C)[C@](O)(C=O)[C@H]2O[C@@H]2O[C@@H](CO)[C@H](O)[C@@H](O)[C@@H]2NC)[C@@H](N/C(N)=N\[H])[C@@H]1O [streptomycin],"shoot blight incidence, in words",E. amylovora 153N,greatly reduced
same,"canker, in words",E. amylovora 153N,appeared to prevent canker
copper citrate [Example 13],Change in Turbidity from T0 (delta NTU) T 96 Hours,[1],1054.4 delta NTU
same,Change in Turbidity from T0 (delta NTU) T 18 hours,[1],894.4 delta NTU
same,Change in Turbidity from T0 (delta NTU) T 24 hours,[1],975.4 delta NTU
same,Change in Turbidity from T0 (delta NTU) Time 1 Hr,[1],22.4 delta NTU
same,Turbidity (NTU) T 96 Hours,[1],1100 NTU
same,Turbidity (NTU) T 18 hours,[1],940 NTU
same,Turbidity (NTU) T 24 hours,[1],1021 NTU
same,Turbidity (NTU) Time 1 Hr,[1],68 NTU
same,Turbidity (NTU) Time zero,[1],45.6 NTU
